Results from ChEMBL document CHEMBL4613206, “Recent applications of hydantoin and thiohydantoin in medicinal chemistry” (Eur J Med Chem, 2019).
Converted amounts (≈) assume the structure as drawn. Each block holds one compound with its values, some of them ahead of it.

Tests used:
Tyrosinase = target: T1, Tyrosinase (Homo sapiens, UniProt P14679); experiment: Inhibition of tyrosinase (unknown origin)
T1 sequence (P14679 whole entry): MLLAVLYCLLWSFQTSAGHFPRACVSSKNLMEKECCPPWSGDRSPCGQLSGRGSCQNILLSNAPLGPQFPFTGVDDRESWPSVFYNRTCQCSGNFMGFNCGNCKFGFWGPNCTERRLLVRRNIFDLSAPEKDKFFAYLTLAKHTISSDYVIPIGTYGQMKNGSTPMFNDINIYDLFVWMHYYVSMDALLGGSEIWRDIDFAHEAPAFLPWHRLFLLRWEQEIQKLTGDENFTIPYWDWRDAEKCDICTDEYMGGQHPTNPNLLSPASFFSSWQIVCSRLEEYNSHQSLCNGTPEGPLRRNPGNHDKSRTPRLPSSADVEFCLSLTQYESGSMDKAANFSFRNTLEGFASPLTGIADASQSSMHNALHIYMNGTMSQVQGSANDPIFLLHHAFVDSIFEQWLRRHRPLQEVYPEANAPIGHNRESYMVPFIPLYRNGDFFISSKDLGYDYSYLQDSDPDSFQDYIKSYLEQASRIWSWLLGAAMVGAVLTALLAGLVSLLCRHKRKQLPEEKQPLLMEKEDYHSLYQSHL

Pseudomonas aeruginosa [1] = experiment: Antibacterial activity against Pseudomonas aeruginosa; type: functional
[2] = system: Staphylococcus epidermidis; experiment: Antibacterial activity against methicillin resistant Staphylococcus epidermidis; type: functional
Klebsiella pneumoniae = experiment: Antibacterial activity against Klebsiella pneumoniae; type: functional
Staphylococcus aureus [3] = experiment: Antibacterial activity against methicillin resistant Staphylococcus aureus; type: functional
Enterococcus faecalis [4] = experiment: Antibacterial activity against Enterococcus faecalis; type: functional
Escherichia coli [5] = experiment: Antibacterial activity against Escherichia coli; type: functional
[6] = target: T2, NAD-dependent protein deacetylase sirtuin-2 (Homo sapiens, UniProt Q8IXJ6); experiment: Inhibition of recombinant human SIRT2 after 30 mins
T2 sequence (Q8IXJ6 whole entry): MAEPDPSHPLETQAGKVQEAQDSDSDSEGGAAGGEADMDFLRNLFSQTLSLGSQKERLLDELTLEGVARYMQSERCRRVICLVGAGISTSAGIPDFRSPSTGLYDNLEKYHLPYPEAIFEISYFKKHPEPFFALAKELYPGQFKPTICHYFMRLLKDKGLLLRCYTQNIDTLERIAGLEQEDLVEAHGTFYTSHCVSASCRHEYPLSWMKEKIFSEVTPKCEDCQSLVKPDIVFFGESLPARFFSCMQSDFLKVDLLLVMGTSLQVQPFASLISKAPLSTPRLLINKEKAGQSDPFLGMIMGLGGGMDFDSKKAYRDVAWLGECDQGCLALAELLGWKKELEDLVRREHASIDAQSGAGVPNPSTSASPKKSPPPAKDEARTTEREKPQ

[7] = target: T3, NAD-dependent protein deacetylase sirtuin-1 (Homo sapiens, UniProt Q96EB6); experiment: Inhibition of recombinant human SIRT1 after 30 mins
T3 sequence (Q96EB6 whole entry): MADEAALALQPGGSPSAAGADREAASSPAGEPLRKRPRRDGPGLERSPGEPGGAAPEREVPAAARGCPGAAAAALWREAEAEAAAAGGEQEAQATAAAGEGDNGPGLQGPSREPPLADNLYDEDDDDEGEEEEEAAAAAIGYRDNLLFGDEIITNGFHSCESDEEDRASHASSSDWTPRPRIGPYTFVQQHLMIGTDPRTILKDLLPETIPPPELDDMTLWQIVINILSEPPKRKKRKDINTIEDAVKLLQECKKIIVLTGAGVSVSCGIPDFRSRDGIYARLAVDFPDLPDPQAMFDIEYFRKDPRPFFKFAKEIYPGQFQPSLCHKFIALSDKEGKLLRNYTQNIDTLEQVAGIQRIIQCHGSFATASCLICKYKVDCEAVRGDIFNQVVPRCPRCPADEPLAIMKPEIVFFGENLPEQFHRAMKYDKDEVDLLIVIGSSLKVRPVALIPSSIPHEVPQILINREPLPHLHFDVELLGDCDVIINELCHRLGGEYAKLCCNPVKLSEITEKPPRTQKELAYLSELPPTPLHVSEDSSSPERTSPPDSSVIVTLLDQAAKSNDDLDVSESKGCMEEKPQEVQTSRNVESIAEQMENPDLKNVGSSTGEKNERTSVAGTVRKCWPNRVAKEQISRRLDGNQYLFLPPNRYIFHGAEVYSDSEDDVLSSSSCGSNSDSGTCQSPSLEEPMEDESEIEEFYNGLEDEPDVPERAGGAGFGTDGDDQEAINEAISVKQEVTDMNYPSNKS

HEp-2 = experiment: Cytotoxicity against human Hep2 cells assessed as reduction in cell viability by MTT assay; type: functional, cell-based
Staphylococcus aureus [8] = experiment: Antibacterial activity against Staphylococcus aureus ATCC 25923; type: functional
Escherichia coli [9] = experiment: Antibacterial activity against Escherichia coli ATCC 25922; type: functional
Pseudomonas aeruginosa [10] = experiment: Antibacterial activity against Pseudomonas aeruginosa ATCC 27853; type: functional
Staphylococcus aureus [11] = experiment: Antibacterial activity against methicillin resistant Staphylococcus aureus ATCC 43300; type: functional
Enterococcus faecalis [12] = experiment: Antibacterial activity against Enterococcus faecalis ATCC 29212; type: functional
Mus musculus [13] = experiment: Antitussive activity in ammonia aerosol-stimulated Kunming mouse assessed as inhibition of number of cough administered as po dose 1 hr before ammonia aerosol stimulation (reference value: 42); type: functional
Mus musculus [14] = experiment: Anti-inflammatory activity in xylene-induced Kunming mouse assessed as inhibition of ear edema administered as po dose 1 hr before xylene administration and measured after 1 hr xylene administration relative to control; type: functional; design: scale not given: the % may be the effect or the level left
Staphylococcus aureus [15] = experiment: Antibacterial activity against Staphylococcus aureus; type: functional

IC50 (Tyrosinase): 1.07 µM
SMILES: COC(=O)CN1C(=O)N(CCCCN2CCN(c3ccccc3OC)CC2)C(c2ccccc2)(c2ccccc2)C1=O

IC50 (Tyrosinase): 7.36 µM
SMILES: COc1ccccc1N1CCN(CCCCN2C(=O)N(C)C(=O)C2(c2ccccc2)c2ccccc2)CC1

SMILES: CCCCCCCCCCCC(=O)N[C@@H](CCCCN)CN1CC(=O)N(c2cccc(Cl)c2)C1=O
MIC (Pseudomonas aeruginosa [1]): 1 µg/mL (≈ 1.97 µM) | MIC [2]: 0.5 µg/mL (≈ 0.986 µM) | MIC (Klebsiella pneumoniae): 0.78 µg/mL (≈ 1.54 µM) | MIC (Staphylococcus aureus [3]): 0.5 µg/mL (≈ 0.986 µM) | MIC (Enterococcus faecalis [4]): 0.5 µg/mL (≈ 0.986 µM) | MIC (Escherichia coli [5]): 1 µg/mL

IC50 [6]: 38.8 µM | IC50 [7]: 38.6 µM
SMILES: O=C1N/C(=C\c2ccc(N3CCCC3)cc2)C(=O)N1Cc1ccc(Cl)cc1

SMILES: CC(C)C1NC(=O)N(OCc2cccc(Cl)c2)C1=O (stereo unspecified)
IC50 (HEp-2): 0.07 µM

SMILES: CC(C)CC1NC(=O)N(OCc2cccc(Cl)c2)C1=O (stereo unspecified)
IC50 (HEp-2): 0.04 µM

SMILES: CC(C)CC1NC(=O)N(OCc2ccc(Br)cc2)C1=O (stereo unspecified)
IC50 (HEp-2): 0.15 µM

SMILES: O=C1CN(/N=C2\C(=O)N(Cc3ccc(F)cc3)c3ccccc32)C(=O)N1
MIC (Staphylococcus aureus [8]): 6.25 µg/mL (≈ 17.7 µM) | MIC (Escherichia coli [9]): 6.25 to 12.5 µg/mL (≈ 17.7 to 35.5 µM) | MIC (Pseudomonas aeruginosa [10]): 12.5 µg/mL (≈ 35.5 µM) | MIC (Staphylococcus aureus [11]): 6.25 µg/mL (≈ 17.7 µM) | MIC (Enterococcus faecalis [12]): 12.5 µg/mL (≈ 35.5 µM)

SMILES: CC(C)Cc1ccc(C(C)C(=O)N2C(=O)CN(C)C2=O)cc1 (stereo unspecified)
Number of coughs (Mus musculus [13]): 15.5 | Activity (Mus musculus [14]): 54.61%

IC50 [6]: 68.7 µM | IC50 [7]: 94 µM
SMILES: CCN(CC)c1ccc(/C=C2\NC(=O)N(Cc3ccc(C)cc3)C2=O)cc1

SMILES: O=C1CN(/N=C2\C(=O)N(Cc3ccccc3F)c3ccccc32)C(=O)N1
MIC (Staphylococcus aureus [8]): 6.25 µg/mL (≈ 17.7 µM) | MIC (Escherichia coli [9]): 6.25 to 12.5 µg/mL (≈ 17.7 to 35.5 µM) | MIC (Pseudomonas aeruginosa [10]): 12.5 µg/mL (≈ 35.5 µM) | MIC (Staphylococcus aureus [11]): 6.25 µg/mL (≈ 17.7 µM) | MIC (Enterococcus faecalis [12]): 12.5 µg/mL (≈ 35.5 µM)

SMILES: CC(C)Cc1ccc(C(C)C(=O)N2C(=O)CNC2=O)cc1 (stereo unspecified)
Number of coughs (Mus musculus [13]): 18.3 | Activity (Mus musculus [14]): 24.51%

MIC (Staphylococcus aureus [15]): 0.044 µM (≈ 0.0144 µg/mL) | MIC (Escherichia coli [5]): 0.088 µM
SMILES: O=C1NC(CN2CCCC2)C(=O)N1c1c(Cl)cccc1Cl (stereo unspecified)

IC50 [6]: 37.7 µM | IC50 [7]: 32.1 µM
SMILES: O=C1N/C(=C\c2ccc(O)c(Cl)c2)C(=O)N1Cc1ccc(F)cc1

SMILES: CC(C)Cc1ccc(C(C)C(=O)N2C(=O)N(C)C(C)(C)C2=O)cc1 (stereo unspecified)
Number of coughs (Mus musculus [13]): 18.6 | Activity (Mus musculus [14]): 25%

SMILES: O=C1CN(/N=C2\C(=O)N(Cc3cccc(F)c3)c3ccccc32)C(=O)N1
MIC (Staphylococcus aureus [8]): 6.25 µg/mL (≈ 17.7 µM) | MIC (Escherichia coli [9]): 6.25 to 12.5 µg/mL (≈ 17.7 to 35.5 µM) | MIC (Pseudomonas aeruginosa [10]): 12.5 µg/mL (≈ 35.5 µM) | MIC (Staphylococcus aureus [11]): 6.25 µg/mL (≈ 17.7 µM) | MIC (Enterococcus faecalis [12]): 12.5 µg/mL (≈ 35.5 µM)

SMILES: CC(C)Cc1ccc(C(C)C(=O)O)cc1 (stereo unspecified) [IBUPROFEN]
Activity (Mus musculus [14]): 28.07%
